Reference: patent publication US20030032580A1, “Use of agonists or antagonists of the 5-HT7 receptor to treat disorders of the bladder” (Synaptic Pharmaceutical Corporation, priority 1999, published 2003)

Key:
[1] = target: cloned rat 5-HT2B receptor (Rattus norvegicus, UniProt P30994); settings: cited from earlier work
[2] = target: T1, 5-HT7 receptor (first phase of the concentration-effect curve to 5-CT in the rat bladder) (Rattus norvegicus, UniProt P32305); assay: Electrically stimulated rat bladder strips: first (high potency) phase of the concentration-effect curve to 5-CT; assay type: cell-based
T1 construct: from tissue; host or cells: rat urinary bladder detrusor strips
T1 sequence (P32305 whole entry): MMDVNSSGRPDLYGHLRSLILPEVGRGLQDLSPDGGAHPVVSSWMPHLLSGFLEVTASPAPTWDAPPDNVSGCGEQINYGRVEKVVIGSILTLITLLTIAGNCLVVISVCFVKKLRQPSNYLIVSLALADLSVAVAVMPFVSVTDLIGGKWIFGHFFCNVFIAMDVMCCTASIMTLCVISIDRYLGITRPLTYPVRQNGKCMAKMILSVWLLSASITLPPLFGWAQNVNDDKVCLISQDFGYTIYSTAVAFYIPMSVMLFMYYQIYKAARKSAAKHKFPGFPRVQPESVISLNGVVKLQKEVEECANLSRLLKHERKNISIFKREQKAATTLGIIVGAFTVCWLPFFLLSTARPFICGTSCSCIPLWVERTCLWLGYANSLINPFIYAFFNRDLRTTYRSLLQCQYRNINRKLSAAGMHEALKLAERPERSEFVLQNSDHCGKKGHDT

human 5-HT7 receptor = target: T2, human 5-HT7 receptor (Homo sapiens, UniProt P34969); assay: Radioligand binding at cloned 5-HT7 receptor, this study ([3H]serotonin competition); settings: reference: this study, read-out: pK1 (converted)
T2 construct: host or cells: LM(tk-) mouse fibroblasts, clone L-5HT-4B
T2 sequence (P34969 1-445 isoform P34969-2): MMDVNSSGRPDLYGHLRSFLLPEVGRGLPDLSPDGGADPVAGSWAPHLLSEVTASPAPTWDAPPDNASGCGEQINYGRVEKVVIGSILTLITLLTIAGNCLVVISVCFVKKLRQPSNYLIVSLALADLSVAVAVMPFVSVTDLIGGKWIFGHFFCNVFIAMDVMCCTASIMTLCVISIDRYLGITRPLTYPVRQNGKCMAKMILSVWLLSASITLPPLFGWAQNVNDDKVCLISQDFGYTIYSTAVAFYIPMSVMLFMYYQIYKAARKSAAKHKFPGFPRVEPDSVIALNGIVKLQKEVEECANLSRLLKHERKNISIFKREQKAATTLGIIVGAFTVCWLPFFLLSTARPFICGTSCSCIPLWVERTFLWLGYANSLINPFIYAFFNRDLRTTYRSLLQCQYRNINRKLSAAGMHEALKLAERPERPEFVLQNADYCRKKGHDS
Method: The binding of a test compound to a receptor of interest was generally evaluated by competitive binding assays using membrane preparations derived from cells which expressed the receptor. First, conditions were determined which allowed measurement of the specific binding of a compound known to bind to the receptor. Then, the binding of the known compound to the receptor in membrane preparations was evaluated in the presence of several different concentrations of the test compound.
Human Serotonin Receptors. 5-HT1Dα, 5-HT1Dβ, 5-HT1E, 5-HT1F, and 5-HT7 Receptors: The cell lysates of LM(tk-) clonal cell line stably transfected with the genes encoding each of these 5-HT receptor-subtypes were prepared as described above. The cell line for the 5-HT1Dα receptor, designated as Ltk-8-30-84, was deposited on Apr. 17, 1990, and accorded ATCC Accession No. CRL 10421. The cell for the 5-HT1Dβ receptor, designated as Ltk-11, was deposited on Apr. 17, 1990, and accorded ATCC Accession No. CRL 10422. The cell line for the […] receptor, designated 5-HT1E-7, was deposited on Nov. 6, 1991, and accorded ATCC Accession No. CRL 10913. The cell line for the 5-HT1F receptor, designated L-5-HT1F, was deposited on Dec. 27, 1991, and accorded ATCC Accession No. ATCC 10957. […] Nonspecific binding was determined in the presence of 10 μM serotonin. […]

[3] = target: T3, 5-HT2B receptor (second phase of the concentration-effect curve to 5-CT in the rat bladder) (Rattus norvegicus, UniProt P30994); assay: Electrically stimulated rat bladder strips: second (low potency) phase of the concentration-effect curve to 5-CT; assay type: cell-based
T3 construct: from tissue; host or cells: rat urinary bladder detrusor strips
T3 sequence (P30994 whole entry): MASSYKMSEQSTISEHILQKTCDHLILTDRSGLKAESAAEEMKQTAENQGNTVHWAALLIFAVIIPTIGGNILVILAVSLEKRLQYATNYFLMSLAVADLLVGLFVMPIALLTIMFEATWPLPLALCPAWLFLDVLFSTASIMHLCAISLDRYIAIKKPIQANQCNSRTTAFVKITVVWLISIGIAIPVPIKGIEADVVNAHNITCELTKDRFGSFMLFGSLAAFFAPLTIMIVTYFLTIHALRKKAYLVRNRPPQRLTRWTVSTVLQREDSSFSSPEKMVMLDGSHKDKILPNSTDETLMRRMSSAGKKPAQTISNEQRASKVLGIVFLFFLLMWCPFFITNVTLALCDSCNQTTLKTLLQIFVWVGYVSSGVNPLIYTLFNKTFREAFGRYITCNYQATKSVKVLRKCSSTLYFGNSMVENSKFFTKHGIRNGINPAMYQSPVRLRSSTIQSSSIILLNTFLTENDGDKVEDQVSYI

5-HT1E = 5-HT1E (Homo sapiens, UniProt P28566); settings: Adham et al., 1993; cited from earlier work
5-HT1E, sequence (P28566 whole entry): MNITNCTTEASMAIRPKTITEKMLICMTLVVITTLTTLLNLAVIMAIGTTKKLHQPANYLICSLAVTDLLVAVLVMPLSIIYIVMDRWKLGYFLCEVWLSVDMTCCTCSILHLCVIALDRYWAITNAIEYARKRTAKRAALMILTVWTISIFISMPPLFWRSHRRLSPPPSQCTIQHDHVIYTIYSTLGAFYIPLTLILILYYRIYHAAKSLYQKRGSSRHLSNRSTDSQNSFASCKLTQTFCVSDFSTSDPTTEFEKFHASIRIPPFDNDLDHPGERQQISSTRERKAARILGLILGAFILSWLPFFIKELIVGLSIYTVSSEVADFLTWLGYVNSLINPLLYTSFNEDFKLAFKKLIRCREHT

[4] = test system: rat bladder strips (postjunctional response to α,β-methylene-ATP); assay type: cell-based; settings: 0.1 and 10 μM; 5 minute incubation; tetrodotoxin 0.1 μM; α,β-methylene-ATP 3 μM
[5] = test system: rat urinary bladder strips; assay: Isolated rat urinary bladder strips: agonist-evoked increase of electrically evoked, nerve-mediated contractions; assay type: cell-based
Description: 5-HT receptors in the rat urinary bladder which, when activated by serotonin agonists, cause increases in the magnitude of nerve-mediated contractions, were identified and characterized pharmacologically using isolated strips of rat bladder.
Urinary bladders were isolated from female CD rats (Charles Rivers, 250-300 g). The bladder base (lower third) was removed and the detrusor region was opened into a flat sheet by cutting from the basal opening to the apex. This was cut into quadrants, each of which was attached on its lateral edges by two tissue clips and suspended in a 5 ml tissue bath containing Krebs' solution (pH 7.4 37° C.) of the following composition (mM): NaCl (118), KCl (4.9), NaHCO3 (25), MgCl2 (1.2), NaHPO4 (1.0), CaCl2 (2.5), glucose (11) and aerated continuously with 95% O2/5% CO2. Except in initial experiments, prazosin (0.1 μM), idazoxan (0.3 μM), and indomethacin (10 μM) were included routinely in the buffer to block α1- and α2-adrenoceptors and to prevent the formation of prostaglandins, respectively. After allowing 30 min for equilibration, bladder strips were placed under 1.0 g resting tension, readjusted 6 times over the next 30 min. For most experiments contractile responses were evoked by transmural electrical impulses delivered by Grass S-88 (Grass Instruments, City, Mass.) stimulators (single pulses, 0.1 Hz, 1 ms pulse width, 90 V) through a pair of stainless steel electrodes. Contractions were measured using isometric force transducers (Radnotti Instruments, Monrovia, Calif.) and recorded using MacLab software (AD Instruments, Milford, Mass.).
Bladder strips, in Krebs' solution containing antagonist or vehicle, were stimulated at supramaximal voltage until contractions of consistent magnitude were obtained (ca. 30 min). During this period the Krebs' solution was exchanged at 15 min intervals. Cumulative concentration-effect curves were then constructed by administering 5-carboxamidotryptamine (5-CT) or other agonists in 0.5 log M increments. Responses are expressed as a percent of control, and represent agonist-evoked increases in the magnitude of the electrically evoked contractions relative to that in the absence of agonist (“control”, taken as 100%). […] Therefore, only a single agonist concentration-effect curve was constructed in each tissue.
Concentration-effect curves were fitted (Kaleidagraph, Synergy Software, PCS Inc., Reading PA) to 1-site or 2-site models of agonism as represented by the following equations:
(1-site): Effect=Emax[A]^n/[A]^n+EC50^n;
(2-site): Effect=(Emax^a[A]/[A]+EC50^a+(Emax^b[A]/[A]+EC50^b),
where Emax represents the maximum effect of the agonist, [A] is the agonist molar concentration, EC50 is the concentration of agonist eliciting half its maximum effect, n is the slope factor, and the italicized superscripts (a and b) denote values for the first and second phase of the biphasic curve. Antagonist pKB values were determined using the formula described by Furchgott (1972): pKB=log (agonist concentration ratio −1/antagonist concentration [M]. In some instances, pKB values were determined according to the method of Arunlakshana and Schild (1959), in which the slope of the Schild plot was constrained to unity. Concentration ratios for Schild analyses were calculated from mean EC50 values for the agonist in the absence and presence of the antagonist in experiments from n different animals.

cloned rat 5-HT2B receptor, sequence (P30994 whole entry): as the sequence (P30994 whole entry) above

Row | Compound | pKB, 5-HT2B ([1]; Wainscott et al., 1993) | pK1 ([1]; cloned rat 5-HT2B receptor, reference 1 (Wainscott et al., 1993)) | first-phase affinity lower than affinity for the 5-HT2B receptor subtype ([2]; bladder pKB versus published value) | Ki (human 5-HT7 receptor) | second-phase affinity greater than affinity for 5-HT1B, 5-HT1E, 5-HT2A and 5-HT2C subtypes ([3]; bladder pKB versus published values) | Kb ([3]; inhibition of the second phase of the concentration-effect curve to 5-CT in the rat bladder, read-out: pKB (converted)) | pKB, 5-HT1E (5-HT1E) | EC50 [2] | EC50 [3] | effect on the magnitude of a subsequent contraction to α,β-methylene-ATP [4] | difference in EC50 values between first and second phase [5] | effect on the magnitude of electrically evoked contractions ([5]; agonist alone, electrically stimulated rat bladder strips)
1 | COC(=O)[C@H]1[C@H]2C[C@H]3c4[nH]c5ccccc5c4CCN3C[C@H]2CC[C@@H]1O [rauwolscine] | 7.5 | 7.5-7.6 | more than 10 fold | 2510 nM | at least 10 fold | 15.8 nM | 5.5 |  |  |  |  | 
2 | NCCc1c[nH]c2ccc(C(N)=O)cc12 [5-CT, 5-carboxamidotryptamine] |  |  |  |  |  |  |  | 1.58 nM | 158 nM | failed to significantly modify | 100 fold | mimicked
